Reference: patent US20120329879A1, “BETA-ADRENERGIC RECEPTOR AGONISTS AND USES THEREOF” (THE UNIVERSITY OF TENNESSEE RESEARCH FOUNDATION, priority 2010, published 2012)
Values joined by “and” are separate entries in the source; they are usually repeats but may differ in a detail not shown here. Identical values can stand only once. “Also recorded” adds a separate entry of the source.

How the values were obtained:
[1] = Tissue distribution of Compound 2 in heart, lung and spleen after topical delivery; format: in vivo; details: rat, 24 hours after topical 10 mg/kg, single animals 1-5
TNFalpha = TNFalpha ELISA of retina of diabetic rats; format: in vivo, rat
Text: The other eye from each animal was used for protein analyses for inflammatory markers and insulin receptor signaling. Western blotting was done as described (9). Antibodies used were total insulin receptor beta (1:500, Cellular Signaling, Danvers, Mass.), phosphorylated insulin receptor beta (Tyr 1150/1151, 1:500, Cellular Signaling, Danvers, Mass.), total Akt (1:500, Cellular Signaling, Danvers, Mass.), and phosphorylated Akt (Ser 473, 1:500, Cellular Signaling, Danvers, Mass.). For analyses of the data, mean densitometry values were obtained using the Kodak 2.0 software. The ratio of phosphorylated protein was compared to levels of total protein.
To determine the TNF concentration (Pierce, Rockford Ill.) and levels of cleaved caspase 3 (Cellular Signaling, Danvers, Mass.), ELISA analyses were done according to manufacturers instructions, except that equal protein was loaded into the cleaved caspase 3 ELISA so the optical density numbers can be used.

[2] = system: electrical activity of the retina of diabetic rats; experiment: Electroretinogram (ERG) analyses in diabetic rats; format: in vivo, rat
Method: Each month of the experiment, electroretinogram (ERG) analyses were performed on rats from the three groups. Electroretinogram analyses were done to evaluate changes in electrical activity of the retina and as a measure of drug effectiveness. For the electroretinogram analyses, rats were dark adapted overnight. The following morning, the rats were anesthetized using an intraperitoneal injection of a ketamine (0.6 ml/kg body weight) and xylazine (0.375 ml/kg body weight) cocktail. The pupil of each eye was fully dilated using a 1% tropicamide solution (Alcon). To protect the eye and assist in maintaining a good electrical connection, a drop of methylcellulose solution was added to each eye (Celluvisc; Allergan, Irvine, Calif.). Body temperature was maintained at 37° C. with a water-based heating pad. The electroretinogram responses were recorded from both eyes simultaneously using platinum wire corneal electrodes, a forehead reference electrode, and ground electrode in the tail. The electroretinogram stimuli were delivered via the Diagnosys LLC system. All animals tested recovered from anesthesia after the electroretinogram recording sessions. No animals with gross cataract were used for electroretinogram analyses.
Electroretinogram responses were recorded in response to brief (4 ms) white LED and then from the Xenon arc lamp delivered at 2.1-second intervals for dim stimuli and 35 second frames for brighter stimuli. The range of stimulus intensities extended from −4.0 to 1.0 log cd*s/m2 for analysis of the b-wave amplitudes. Electroretinogram waveforms were recorded with a bandwidth of 0.3-500 Hz and sampled at 2 kHz by a digital acquisition system (Diagnosys) and were analyzed using MatLab (The MathWorks, Natick, Mass.). […]
For assessment of the oscillatory potentials, stimuli were administered at 3 log (cd*s/m2). Data analysis for the oscillatory potentials was obtained using MatLab software with a digital band-pass filter set for 60-300 Hz and the peak wavelets of the 4 wavelets were measured from trough to peak. […]

[3] = Vitreous humor levels of Compound 2 after topical administration to rats; format: in vivo; details: rat, 10 mg/kg
Method: For data analyses B/PK parameters were derived from the obtained plasma, vitreous humor, urine and feces concentration data by standard non-compartmental analysis. Terminal half-life was determined as the ratio of ln 2 divided by λz, the negative of the slope of the linear regression of the natural log concentration vs. time profile during the terminal phase. Systemic and ocular exposure was determined as plasma or ocular area under the concentration-time curve (AUC) using the trapezoidal rule. Compound 2 concentration determination and metabolite profiling is conducted using a validated LC/MS/MS assay based on the methodology described (14-15). The LC-MS/MS system comprises a Shimadzu HPLC system (Kyoto, Japan), API-4000 Q Trap tandem mass spectrometer (Foster City, Calif., USA) equipped with a turbo ion-spray and a HTC-PAL autosampler (Leap Technologies, Carrboro, N.C., USA).

[4] = Body weight, blood glucose, blood pressure and intraocular pressure in streptozotocin diabetic rats on eye drop therapy; format: in vivo, rat
Method: Male Lewis rats purchased from Charles River were used. Diabetic rats received a single injection of 60 mg/kg streptozotocin (Fisher, Pittsburgh, Pa.). […] All rats were weighed weekly and only rats with non-fasting blood glucose levels >250 mg/dl were considered diabetic. The designation of diabetic was made at the beginning of the experiments. Glucose was measured bimonthly. No insulin was administered to the rats at any time. To determine whether topical application of Compound 2 could reach the retina and elicit response, dose and time course studies were performed. For those studies, animals were made diabetic for 2 months using STZ. For 4 days, rats received a variety of doses of either Compound 2 (1 mM to 20 mM) or PBS once or twice each day. After the 4 days of eye drop treatment to both eyes, the diabetic and control animals were euthanized. […] After determining the optimal dose and time course for eye drop treatment for Compound 2, three groups of rats were used for this part of the study (control, diabetic (Diabetic), and diabetic+eye drop (Diab+2). Within 1 week of STZ-injection, 12 rats were put onto eye drop therapy. Rats on the eye drop therapy received a daily application of 4 drops of 1 mM Compound 2 to each eye. To verify that insulin levels were lost in the diabetic animals, insulin ELISA (Rat/Mouse Insulin ELISA kit, Linco, St. Charles, Mo.) was done on blood sampled from all rats at 2 months of age. Rats were sacrificed at 2 or 8 months of age. […] Analyses on the rats were done for acute changes (8 weeks of diabetes, 45 rats) and chronic changes (8 months of diabetes, 45 rats). […] Each month, all rats were tested for visual function: electroretinogram (ERG) and live retinal imaging were performed using Optical Coherence Topography (OCT). […] While the animals were asleep for ERG analyses, blood pressure and pulse were monitored to detect potential negative cardiovascular events.

Rat Müller cells (rMC-1) = experiment: TNFalpha and cleaved caspase 3 ELISA in Müller cells cultured in high glucose; format: cell-based
Method: Human retinal endothelial cells (HREC) were purchased from Cell Systems (Kirkland, Wash.) and grown in either basal (5 mM glucose) or growth (25 mM glucose) media. Both media is supplemented with 10% FBS and antibiotics. The day prior to experiments, cells are serum-starved for 18-24 hours. Rat Müller cells (rMC-1) were grown in DMEM medium with 5 mM glucose or 25 mM glucose. Media was supplemented with 10% FBS and antibiotics. Cells were serum starved prior to all experiments for 18-24 hours.
Human retinal endothelial cells (HREC) and rat Muller cells (rMC-1) in both glucose conditions were treated with Compound 2 at doses of 10 nM, 50 nM, 100 nM, 1 μM, and 10 μM of Compound 2. Cells of each type were grown in medium containing L-glucose to control for changes in osmolarity. 10 μM isoproterenol was also used for each condition as a positive control. Müller cells were treated for 1 hour and 24 hours, while HREC were treated for 30 and 60 minutes.
Following treatment, cells were collected into lysis buffer containing protease and phosphatase inhibitors. ELISA analyses for TNFalpha, cleaved caspase 3, and PKA were done according to manufacturers instructions. Data is compared against non-treated cells and cells at the various doses. A Kruskal-Wallis test is done, with a Dunn's test for secondary analyses. […] The dose that decreases TNFalpha and caspase 3 levels also increases PKA activity.

[5] = diabetic rats, daily 1 mM Compound 2 eye drops, in mmHg (unit assumed)
[6] = following Compound 2 treatment, in words
[7] = Müller cells in high glucose, 50 nM

## COc1cc(CCNC[C@H](O)c2ccc(O)c(O)c2)cc(OC)c1OC.Cl (single isomer, unassigned) [Compound 2, 4-[1-hydroxy-2-(1-ethylamino-3-,4-,5-trimethoxyphenyl)ethyl]benzene-1,2-diol hydrochloride]
[1]
  concentration in Heart: <400 ng/g
[1]; hydrochloride
  concentration in Lung: 463.43 ng/g and 2262.08 ng/g and 2862.22 ng/g and 2060.08 ng/g and 535.24 ng/g
  concentration in Spleen: 12134.03 ng/g and 8393.8 ng/g and 7061.2 ng/g and 4544.4 ng/g and 34331.0 ng/g
[1]; heart, topical, 10 mg/kg
  concentration at 24 h: < 400 ng/g
TNFalpha; 1 mM eye drops, 8 months
  TNFalpha levels in retina, 8 months: levels similar to Ctrl rats
TNFalpha; eye drop therapy
  TNFα concentration throughout the treatment regimen: effective in reducing TNFα concentration throughout the treatment regimen
[2]; 6 month diabetic rats receiving Compound 2 therapy for 2 months
  retinal function (ERG), delayed treatment: had improved retinal function
[2]; daily topical 1 mM from one week after STZ, ERG after 6 weeks
  B-wave amplitude: inhibited the loss of B-wave amplitude
[2]; diabetic rats, topical 1 mM daily from onset, over 8 months, hydrochloride
  ERG amplitudes (a-wave, b-wave, oscillatory potentials): inhibited the loss of amplitude of B-wave and oscillatory potentials; also recorded: can inhibit the loss of all three components of the ERG over the entire 8-month period
[3]
  concentration in the vitreous humor within 1 hour: approximately 8 ug/ml
  time by which all detectable levels in the vitreous humor are gone: ≤ 2 h
  time of peak concentration in the vitreous humor: < 1 h
[4]; daily administration of 1 mM, in words
  effect on body weight: did not affect
[4]; diabetic rats, daily 1 mM Compound 2 eye drops
  Body wt: 248.7 ± 8.3 g
[4]; [5]
  BP Systolic: 104.8 ± 13.7
  IOP: 8.08 ± 1.17
[4]; [6]
  effect on blood pressure: no observed effect
  effect on intraocular pressure: no observed effect
Rat Müller cells (rMC-1); [7]
  reduction of TNFalpha levels compared to not-treated cells: 19%
  reduction of caspase 3 compared to not-treated cells: 55%
Rat Müller cells (rMC-1); Müller cells in high glucose, 50 nM, vs non-treated
  TNFalpha levels, in words: significantly reduced
Rat Müller cells (rMC-1); Müller cells in high glucose, 50 nM, vs non-treated, hydrochloride
  cleaved caspase 3 levels, in words: significantly decreased caspase 3 levels in Müller cells at the 24-hour time point; also recorded: significantly reduced levels of cleaved caspase 3
Rat Müller cells (rMC-1); Müller cells, 50 nM Compound 2 vs. 10 μM isoproterenol
  dose for blockade of apoptosis and TNFalpha activity compared with isoproterenol: significantly lower dose
